From ChEMBL document CHEMBL1126576, “Structure-activity relationships of the antimalarial agent artemisinin. 1. Synthesis and comparative molecular field analysis of C-9 analogs of artemisinin and 10-deoxoartemisinin” (1993)
The source made the active and inactive calls. The calls are words filed in the database; no cut-off is given here.

Tests used:
[1] = test system: Plasmodium falciparum; test: Relative activity compared to artemisinin against Plasmodium falciparum Sierra Leone D6; assay type: functional
[2] = test system: Plasmodium falciparum; test: Relative activity compared to artemisinin against Plasmodium falciparum Indochina W2; assay type: functional
[3] = test system: Plasmodium falciparum; test: Relative activity against Plasmodium falciparum D6 (Sierra Leone) compared to artemisinin; assay type: functional
[4] = test system: Plasmodium falciparum; test: Relative activity against Plasmodium falciparum W2 Indochina compared to artemisinin; assay type: functional
[5] = test system: Plasmodium falciparum; test: In vitro relative potency against Plasmodium falciparum Sierra Leone D6; assay type: functional
[6] = test system: Plasmodium falciparum; test: Relative activity compared to artemisinin against Plasmodium falciparum D6 (Sierra Leone); Not active; assay type: functional, organism-based
[7] = test system: Plasmodium falciparum; test: Relative activity compared to artemisinin against Plasmodium falciparum Indochina W-2; Not active; assay type: functional, organism-based

Row | SMILES | Relative activity [3] | Relative activity [4] | other results
1 | C[C@@H]1CC[C@H]2[C@@H](C)C(=O)O[C@@H]3O[C@@]4(C)CC[C@@H]1[C@]32O4 [DEOXYARTEMISININ] | – | – | Relative activity [1]: 0.001; Relative activity [2]: 0.001
2 | C[C@@H]1CC[C@H]2[C@@H](C)C(=O)O[C@@H]3O[C@@]4(C)CC[C@@H]1[C@]32OO4 [ARTEMISININ] | 1 | 1 | –
3 | CC[C@H]1C(=O)O[C@@H]2O[C@@]3(C)CC[C@H]4[C@H](C)CC[C@@H]1[C@@]24OO3 | 6.42 | 12.26 | –
4 | CC(C)CCC[C@H]1C(=O)O[C@@H]2O[C@@]3(C)CC[C@H]4[C@H](C)CC[C@@H]1[C@@]24OO3 | 0.31 | 0.74 | –
5 | C[C@@H]1CC[C@H]2[C@@H](CC(=O)O)C(=O)O[C@@H]3O[C@@]4(C)CC[C@@H]1[C@]32OO4 | 0.002 | 0.003 | –
6 | C[C@@H]1CC[C@H]2[C@@H](CCc3ccccc3)C(=O)O[C@@H]3O[C@@]4(C)CC[C@@H]1[C@]32OO4 | 1.69 | 1 | –
7 | C[C@H]1CO[C@@H]2O[C@@]3(C)CC[C@H]4CCC[C@@H]1[C@]42OO3 | – | – | Relative activity [5]: 4.02
8 | C[C@@H]1CC[C@H]2CC(=O)O[C@@H]3O[C@@]4(C)CC[C@@H]1[C@@]23OO4 | 1.8 | 6.5 | –
9 | C[C@@H]1CC[C@H]2C(C)(C)C(=O)O[C@@H]3O[C@@]4(C)CC[C@@H]1[C@]32O4 | – | – | Relative activity [6]: inactive; Relative activity [7]: inactive
10 | CCCCCC[C@H]1C(=O)O[C@@H]2O[C@@]3(C)CC[C@H]4[C@H](C)CC[C@@H]1[C@@]24OO3 | 4.67 | 5.5 | –
11 | C[C@@H]1CC[C@H]2[C@H](C)C(=O)O[C@@H]3O[C@@]4(C)CC[C@@H]1[C@]32O4 | – | – | Relative activity [6]: inactive; Relative activity [7]: inactive
12 | CC(C)CCC[C@H]1C(=O)O[C@@H]2O[C@@]3(C)CC[C@H]4[C@H](C)CC[C@@H]1[C@@]24O3 | – | – | Relative activity [6]: inactive; Relative activity [7]: inactive
13 | C[C@@H]1CCC[C@@]23CO[C@@](C)(CC[C@@H]12)OO3 | – | – | Relative activity [5]: 0.37
14 | C/C=C\CC1C(=O)O[C@@H]2O[C@@]3(C)CC[C@H]4[C@H](C)CC[C@@H]1[C@@]24OO3 (single isomer, unassigned) | 0.09 | 0.07 | –
15 | O=C1C=C2CCCC3CC4OO[C@@]23[C@H](O1)O4 (single isomer, unassigned) | 0.02 | 0.02 | –
16 | CC1(C)OO[C@]23CCCC[C@H]2CC(=O)O[C@@H]3O1 | – | – | Relative activity [5]: 0.01
17 | CO[C@H]1O[C@@]2(C)CC[C@H]3CCCC[C@]31OO2 | – | – | Relative activity [5]: 0.11
18 | CC(C)[C@H]1C(=O)O[C@@H]2O[C@@]3(C)CC[C@H]4[C@H](C)CC[C@@H]1[C@@]24O3 | – | – | Relative activity [1]: 0.02; Relative activity [2]: 0.07
19 | CC1CCC2C(CCCCc3ccccc3)C(=O)OC3OC4(C)CCC1C32O4 (stereo unspecified) | – | – | Relative activity [6]: inactive; Relative activity [7]: inactive
20 | CO[C@@H]1O[C@@]2(C)CC[C@H]3CCCC[C@]31OO2 | – | – | Relative activity [5]: 0.13
21 | C[C@@H]1CC[C@H]2[C@](C)(Br)[C@@H](Nc3ccccc3)O[C@@H]3O[C@@]4(C)CC[C@@H]1[C@]32OO4 | – | – | Relative activity [5]: 0.16
22 | CCCCC[C@H]1C(=O)O[C@@H]2O[C@@]3(C)CC[C@H]4[C@H](C)CC[C@@H]1[C@@]24OO3 | 3.67 | 8.67 | –
23 | CO[C@]1(C)CC[C@H]2[C@H](C)CCC[C@]2(C=O)OO1 | – | – | Relative activity [5]: 0.001
24 | CC(C)CC[C@H]1C(=O)O[C@@H]2O[C@@]3(C)CC[C@H]4[C@H](C)CC[C@@H]1[C@@]24OO3 | 1.57 | 0.98 | –
25 | CCC[C@H]1C(=O)O[C@@H]2O[C@@]3(C)CC[C@H]4[C@H](C)CC[C@@H]1[C@@]24O3 | – | – | Relative activity [1]: 0.06; Relative activity [2]: 0.07
26 | CC(C)CC[C@H]1C(=O)O[C@@H]2O[C@@]3(C)CC[C@H]4[C@H](C)CC[C@@H]1[C@@]24O3 | – | – | Relative activity [1]: 0.13; Relative activity [2]: 0.14
27 | CC(C)C[C@H]1C(=O)O[C@@H]2O[C@@]3(C)CC[C@H]4[C@H](C)CC[C@@H]1[C@@]24OO3 | 0.2 | 0.24 | –
28 | C[C@@H]1CC[C@H]2[C@](C)(Br)[C@@H](Nc3ccccn3)O[C@@H]3O[C@@]4(C)CC[C@@H]1[C@]32OO4 | – | – | Relative activity [5]: 0.02

Row | SMILES | Relative activity [3] | Relative activity [4] | other results
29 | CCCC[C@H]1C(=O)O[C@@H]2O[C@@]3(C)CC[C@H]4[C@H](C)CC[C@@H]1[C@@]24O3 | – | – | Relative activity [6]: inactive; Relative activity [7]: inactive
30 | C[C@]12CC[C@H]3CCCC[C@@]3(OO1)[C@H](OCc1ccccc1)O2 | – | – | Relative activity [5]: 0.03
31 | CCCC[C@H]1C(=O)O[C@@H]2O[C@@]3(C)CC[C@H]4[C@H](C)CC[C@@H]1[C@@]24OO3 | 0.96 | 1.28 | –
32 | C[C@@H]1CC[C@H]2[C@](C)(Br)[C@@H](Nc3ncccn3)O[C@@H]3O[C@@]4(C)CC[C@@H]1[C@]32OO4 | – | – | Relative activity [5]: 0.01
33 | C/C=C/CC1C(=O)O[C@@H]2O[C@@]3(C)CC[C@H]4[C@H](C)CC[C@@H]1[C@@]24OO3 (single isomer, unassigned) | 0.38 | 0.22 | –
34 | CCCCC[C@H]1C(=O)O[C@@H]2O[C@@]3(C)CC[C@H]4[C@H](C)CC[C@@H]1[C@@]24O3 | – | – | Relative activity [6]: inactive; Relative activity [7]: inactive
35 | CC12CCC3CCCC4CC(=O)OC(O1)C34OO2 (stereo unspecified) | 0.24 | 0.96 | –
36 | C[C@@H]1CC[C@H]2[C@@H](C)C(=O)O[C@@H]3OC(C)(C)OO[C@@]32[C@H]1C | – | – | Relative activity [5]: 0.4
37 | C=CC[C@H]1C(=O)O[C@@H]2O[C@@]3(C)CC[C@H]4[C@H](C)CC[C@@H]1[C@@]24O3 | – | – | Relative activity [6]: inactive; Relative activity [7]: inactive
38 | C[C@@H]1CC[C@H]2[C@@H](CCCc3ccccc3)C(=O)O[C@@H]3O[C@@]4(C)CC[C@@H]1[C@]32OO4 | 6.11 | 4.45 | –
39 | C[C@@H]1CC[C@H]2C(C)(C)C(=O)O[C@@H]3O[C@@]4(C)CCC1[C@]32OO4 (stereo partly specified) | 0.02 | 0.006 | –
40 | C[C@@H]1CC[C@H]2[C@@H](CCCc3ccccc3)C(=O)O[C@@H]3O[C@@]4(C)CC[C@@H]1[C@]32O4 | – | – | Relative activity [1]: 0.15; Relative activity [2]: 0.15
41 | CCC[C@H]1C(=O)O[C@@H]2O[C@@]3(C)CC[C@H]4[C@H](C)CC[C@@H]1[C@@]24OO3 | 5.5 | 12.25 | –
42 | C[C@@H]1CC[C@H]2[C@](C)(Br)[C@@H](Nc3nccs3)O[C@@H]3O[C@@]4(C)CC[C@@H]1[C@]32OO4 | – | – | Relative activity [5]: 0.62
43 | C[C@@H]1CC[C@H]2[C@@H](CCCCc3ccccc3)C(=O)O[C@@H]3O[C@@]4(C)CC[C@@H]1[C@]32OO4 | 1.37 | 3 | –
44 | C[C@@H]1CC[C@H]2CC(=O)O[C@@H]3O[C@@]4(C)CC[C@@H]1[C@@]23O4 | – | – | Relative activity [6]: inactive; Relative activity [7]: inactive
45 | C=CC[C@H]1C(=O)O[C@@H]2O[C@@]3(C)CC[C@H]4[C@H](C)CC[C@@H]1[C@@]24OO3 | 0.31 | 0.72 | –
46 | CC1CCC2C(CCc3ccccc3)C(=O)OC3OC4(C)CCC1C32O4 (stereo unspecified) | – | – | Relative activity [6]: inactive; Relative activity [7]: inactive
47 | CCCCCCCCCCCCCC[C@H]1C(=O)O[C@@H]2O[C@@]3(C)CC[C@H]4[C@H](C)CC[C@@H]1[C@@]24OO3 | 0.001 | 0.001 | –
48 | C[C@@H]1CC[C@H]2[C@](C)(Br)[C@@H](Nc3cccc(F)c3)O[C@@H]3O[C@@]4(C)CC[C@@H]1[C@]32OO4 | – | – | Relative activity [5]: 3.5
49 | C[C@@H]1CC[C@H]2[C@H](C)C(=O)O[C@@H]3O[C@@]4(C)CC[C@@H]1[C@]32OO4 | 0.14 | 0.67 | –
50 | CC(C)C[C@H]1C(=O)O[C@@H]2O[C@@]3(C)CC[C@H]4[C@H](C)CC[C@@H]1[C@@]24O3 | – | – | Relative activity [6]: inactive; Relative activity [7]: inactive
51 | CC(C)[C@H]1C(=O)O[C@@H]2O[C@@]3(C)CC[C@H]4[C@H](C)CC[C@@H]1[C@@]24OO3 | 2.03 | 0.84 | –
52 | CCCCCCCCCCCCCC[C@H]1C(=O)O[C@@H]2O[C@@]3(C)CC[C@H]4[C@H](C)CC[C@@H]1[C@@]24O3 | 0.05 | 0.05 | –
53 | CC[C@H]1C(=O)O[C@@H]2O[C@@]3(C)CC[C@H]4[C@H](C)CC[C@@H]1[C@@]24O3 | – | – | Relative activity [1]: 0.001; Relative activity [2]: 0.001
54 | CCCCCC[C@H]1C(=O)O[C@@H]2O[C@@]3(C)CC[C@H]4[C@H](C)CC[C@@H]1[C@@]24O3 | – | – | Relative activity [1]: 0.07; Relative activity [2]: 0.02
55 | CCCC[C@H]1C(=O)O[C@@H]2OC(C)(C)OO[C@@]23CCCC[C@@H]13 | – | – | Relative activity [5]: 0.1
